Laboratory results published in the CheMixHub viscosity set.

Experiment: xn = mol fraction of the nth substance listed

ClC=C(Cl)Cl + CCC(C)O
303.15 K, 101.3 kPa
Conditions | viscosity [mPa·s]
x1 = 0.1104 | 1.721
x1 = 0.213 | 1.3
x1 = 0.312 | 1.042
x1 = 0.4086 | 0.881
x1 = 0.5218 | 0.761
x1 = 0.6132 | 0.695
x1 = 0.7094 | 0.647
x1 = 0.8124 | 0.606
x1 = 0.9012 | 0.57

Cc1ccccn1 + Cc1ccccc1
viscosity [mPa·s], 101 kPa
Conditions | x2 = 0.2 | x2 = 0.4 | x2 = 0.6 | x2 = 0.8
293.15 K | 0.76 | 0.714 | 0.668 | 0.624
313.15 K | 0.593 | 0.558 | 0.525 | 0.494

CC(O)CO (centres undefined) + CCOC(C)=O
viscosity [mPa·s], 101.3 kPa
Conditions | x2 = 0.0929 | x2 = 0.1906 | x2 = 0.2984 | x2 = 0.4082 | x2 = 0.5085 | x2 = 0.6062 | x2 = 0.7032 | x2 = 0.7968 | x2 = 0.8998
298.15 K | 20.11 | 10.09 | 5.084 | 2.919 | 1.869 | 1.238 | 0.8932 | 0.6933 | 0.5327
303.15 K | 15.92 | 8.28 | 4.306 | 2.516 | 1.663 | 1.115 | 0.8175 | 0.6419 | 0.5008
308.15 K | 12.64 | 6.743 | 3.661 | 2.193 | 1.47 | 1.011 | 0.7525 | 0.5957 | 0.4714
313.15 K | 10.17 | 5.587 | 3.146 | 1.924 | 1.313 | 0.9178 | 0.6971 | 0.5565 | 0.4442
318.15 K | 8.35 | 4.705 | 2.729 | 1.705 | 1.177 | 0.8394 | 0.6418 | 0.5191 | 0.4197
323.15 K | 6.893 | 4.021 | 2.377 | 1.514 | 1.072 | 0.7691 | 0.5964 | 0.4882 | 0.3962

ClC=C(Cl)Cl + CCCCOCCO
viscosity [mPa·s], 101.33 kPa
Conditions | x1 = 0.1147 | x1 = 0.2158 | x1 = 0.3119 | x1 = 0.4264 | x1 = 0.5157 | x1 = 0.6108 | x1 = 0.687 | x1 = 0.8076 | x1 = 0.9043
303.15 K | 2.11 | 1.821 | 1.568 | 1.297 | 1.111 | 0.937 | 0.817 | 0.671 | 0.582
313.15 K | 1.646 | 1.451 | 1.271 | 1.074 | 0.934 | 0.806 | 0.718 | 0.608 | 0.537

Cc1ccccn1 + CO
101 kPa
Conditions | viscosity [mPa·s]
298.23 K, x1 = 0.4451 | 0.774
298.23 K, x1 = 0.5511 | 0.782
298.25 K, x1 = 0.1201 | 0.641
298.28 K, x1 = 0.6483 | 0.784
298.28 K, x1 = 0.8299 | 0.76
303.15 K, x1 = 0.2351 | 0.671
303.16 K, x1 = 0.1201 | 0.6
303.22 K, x1 = 0.6483 | 0.733
303.22 K, x1 = 0.8299 | 0.714
303.25 K, x1 = 0.4451 | 0.722
303.26 K, x1 = 0.5511 | 0.729
308.17 K, x1 = 0.1201 | 0.562
308.23 K, x1 = 0.6483 | 0.686
308.23 K, x1 = 0.8299 | 0.669
308.25 K, x1 = 0.5511 | 0.682
308.26 K, x1 = 0.4451 | 0.676
308.38 K, x1 = 0.2351 | 0.625
313.21 K, x1 = 0.2351 | 0.587
313.22 K, x1 = 0.1201 | 0.522
313.27 K, x1 = 0.6483 | 0.645
313.27 K, x1 = 0.8299 | 0.631
313.28 K, x1 = 0.4451 | 0.633
313.28 K, x1 = 0.5511 | 0.641
318.25 K, x1 = 0.2351 | 0.55
318.26 K, x1 = 0.1201 | 0.49
318.29 K, x1 = 0.6483 | 0.606
318.29 K, x1 = 0.8299 | 0.592
318.35 K, x1 = 0.5511 | 0.601
318.36 K, x1 = 0.4451 | 0.594

O=C1CCCC1 + CCCCOC(C)=O
viscosity [mPa·s], 101 kPa
Conditions | x2 = 0.0703 | x2 = 0.1461 | x2 = 0.2264 | x2 = 0.3112 | x2 = 0.4036 | x2 = 0.4995 | x2 = 0.6079 | x2 = 0.7264 | x2 = 0.8541
298.15 K | 1.044 | 1 | 0.957 | 0.913 | 0.867 | 0.826 | 0.785 | 0.749 | 0.714
303.15 K | 0.961 | 0.921 | 0.881 | 0.84 | 0.797 | 0.758 | 0.72 | 0.686 | 0.654
308.15 K | 0.892 | 0.856 | 0.82 | 0.783 | 0.746 | 0.71 | 0.676 | 0.645 | 0.618
313.15 K | 0.835 | 0.8 | 0.766 | 0.732 | 0.697 | 0.662 | 0.63 | 0.6 | 0.575

NC1CCCCC1 + C1COCO1
298.15 K, 101 kPa
Conditions | viscosity [mPa·s]
x2 = 0.1295 | 1.517
x2 = 0.2508 | 1.331
x2 = 0.3646 | 1.174
x2 = 0.4716 | 1.044
x2 = 0.5724 | 0.9345
x2 = 0.6676 | 0.8431
x2 = 0.7575 | 0.7633
x2 = 0.8427 | 0.6955
x2 = 0.9234 | 0.6344

CCCCCCCCCCCCCCO + CC(C)[C@@H]1CC[C@@H](C)C[C@H]1O
100 kPa, x1 = 0.333
Conditions | viscosity [mPa·s]
293.15 K | 44.69
298.15 K | 31.86
303.15 K | 23.35
308.15 K | 17.54
313.15 K | 13.47
318.15 K | 10.53
323.15 K | 8.38

O=C(CO)[C@@H](O)[C@H](O)[C@H](O)CO + C[N+](C)(C)CCO.[Cl-]
100 kPa, x2 = 0.6
Conditions | viscosity [mPa·s]
313.2 K | 1645
318.2 K | 1057

CC(O)CO (centres undefined) + CCCCCCO
101 kPa
Conditions | viscosity [mPa·s]
303.15 K, x2 = 0.6309 | 6.725
308.15 K, x2 = 0.0771 | 20.05

ClC=C(Cl)Cl + CCC(C)=O
viscosity [mPa·s], 101.33 kPa
Conditions | x1 = 0.1037 | x1 = 0.1997 | x1 = 0.3082 | x1 = 0.3915 | x1 = 0.4564 | x1 = 0.5979 | x1 = 0.7166 | x1 = 0.7989 | x1 = 0.891
298.15 K | – | 0.507 | – | – | 0.557 | 0.592 | 0.612 | 0.622 | 0.63
308.15 K | 0.447 | 0.467 | 0.491 | 0.506 | 0.518 | 0.543 | 0.559 | 0.564 | 0.575
318.15 K | 0.413 | 0.434 | 0.456 | 0.471 | 0.481 | 0.504 | 0.521 | 0.531 | 0.541

ClC=C(Cl)Cl + CCCCOCCOCCO
298.15 K, 101.33 kPa
Conditions | viscosity [mPa·s]
x1 = 0.0171 | 5.12
x2 = 0.0067 | 0.539
x2 = 0.0185 | 0.56
x2 = 0.0282 | 0.577
x2 = 0.0462 | 0.609
x2 = 0.0623 | 0.643
x2 = 0.0798 | 0.68
x2 = 0.0916 | 0.708
x2 = 0.1239 | 0.784
x2 = 0.1624 | 0.89
x2 = 0.2002 | 0.999
x2 = 0.231 | 1.097
x2 = 0.268 | 1.224
x2 = 0.2998 | 1.339
x2 = 0.3306 | 1.46
x2 = 0.3622 | 1.598
x2 = 0.4019 | 1.789
x2 = 0.4263 | 1.914
x2 = 0.4614 | 2.087
x2 = 0.5031 | 2.305
x2 = 0.54 | 2.492
x2 = 0.6007 | 2.81
x2 = 0.6745 | 3.232
x2 = 0.7406 | 3.618
x2 = 0.7898 | 3.928
x2 = 0.8221 | 4.116
x2 = 0.8567 | 4.332
x2 = 0.8875 | 4.525
x2 = 0.9174 | 4.722
x2 = 0.9489 | 4.919
x2 = 0.9678 | 5.031
